Laboratory results: the NIST ThermoML archive (doi:10.1021/acs.jced.7b00106)
Values joined by “and” are separate entries in the source; they are usually repeats but may differ in a detail not shown here. Identical values can stand only once. ± gives the expanded uncertainty stated by the source.

Conditions: Hot wire method

FC(F)(F)/C=C/Cl [(E)-1-chloro-3,3,3-trifluoroprop-1-ene]
Conditions	thermal conductivity
362.89 K, 26388 kPa, Liquid	0.07962 ± 0.0015 W/m/K
362.94 K, 8395 kPa, Liquid	0.06981 ± 0.0008 W/m/K
362.97 K, 8410 kPa, Liquid	0.06989 ± 0.0011 W/m/K
363.01 K, 5513 kPa, Liquid	0.06793 ± 0.00082 W/m/K
363.02 K, 5522 kPa, Liquid	0.06801 ± 0.0012 W/m/K
363.04 K, 15375 kPa, Liquid	0.07401 ± 0.0027 W/m/K
363.05 K, 588 kPa, Fluid (supercritical or subcritical phases)	0.01642 ± 0.0023 W/m/K
363.05 K, 3030 kPa, Liquid	0.06616 ± 0.0009 W/m/K
363.06 K, 3018 kPa, Liquid	0.06615 ± 0.0015 W/m/K
363.06 K, 18623 kPa, Liquid	0.07592 ± 0.0017 W/m/K
363.07 K, 781 kPa, Liquid	0.06438 ± 0.00097 W/m/K
363.07 K, 11657 kPa, Liquid	0.07182 ± 0.0013 W/m/K
363.07 K, 11679 kPa, Liquid	0.07186 ± 0.0013 W/m/K
363.07 K, 15350 kPa, Liquid	0.07393 ± 0.0024 W/m/K
363.07 K, 18631 kPa, Liquid	0.07609 ± 0.0013 W/m/K
363.08 K, 794 kPa, Liquid	0.06441 ± 0.0012 W/m/K
363.17 K, 485 kPa, Fluid (supercritical or subcritical phases)	0.01636 ± 0.0022 W/m/K
363.25 K, 8386 kPa, Liquid	0.0699 ± 0.0015 W/m/K
363.25 K, 8410 kPa, Liquid	0.06983 ± 0.0032 W/m/K
363.28 K, 18567 kPa, Liquid	0.07546 ± 0.003 W/m/K
363.3 K, 5515 kPa, Liquid	0.0679 ± 0.0013 W/m/K
363.3 K, 15333 kPa, Liquid	0.0739 ± 0.0039 W/m/K
363.3 K, 18619 kPa, Liquid	0.07574 ± 0.0018 W/m/K
363.31 K, 369 kPa, Fluid (supercritical or subcritical phases)	0.01625 ± 0.0013 W/m/K
363.31 K, 5517 kPa, Liquid	0.06789 ± 0.0032 W/m/K
363.32 K, 15362 kPa, Liquid	0.07394 ± 0.0033 W/m/K
363.34 K, 11659 kPa, Liquid	0.07179 ± 0.0018 W/m/K
363.35 K, 3013 kPa, Liquid	0.06606 ± 0.0028 W/m/K
363.35 K, 11674 kPa, Liquid	0.07181 ± 0.0022 W/m/K
363.36 K, 3021 kPa, Liquid	0.06613 ± 0.0022 W/m/K
363.38 K, 789 kPa, Liquid	0.06433 ± 0.002 W/m/K
363.39 K, 791 kPa, Liquid	0.06436 ± 0.0013 W/m/K
363.56 K, 18588 kPa, Liquid	0.07568 ± 0.00091 W/m/K
363.56 K, 18589 kPa, Liquid	0.07561 ± 0.00085 W/m/K
363.85 K, 18555 kPa, Liquid	0.07553 ± 0.00086 W/m/K
363.86 K, 18574 kPa, Liquid	0.07558 ± 0.00084 W/m/K
381.79 K, 728 kPa, Fluid (supercritical or subcritical phases)	0.01756 ± 0.0014 W/m/K
381.91 K, 529 kPa, Fluid (supercritical or subcritical phases)	0.01757 ± 0.0026 W/m/K
381.98 K, 885 kPa, Fluid (supercritical or subcritical phases)	0.0177 ± 0.0023 W/m/K
381.99 K, 883 kPa, Fluid (supercritical or subcritical phases)	0.01771 ± 0.0016 W/m/K
382.06 K, 727 kPa, Fluid (supercritical or subcritical phases)	0.0176 ± 0.0018 W/m/K
382.19 K, 530 kPa, Fluid (supercritical or subcritical phases)	0.01766 ± 0.0017 W/m/K
382.26 K, 884 kPa, Fluid (supercritical or subcritical phases)	0.01776 ± 0.0021 W/m/K
382.27 K, 885 kPa, Fluid (supercritical or subcritical phases)	0.01778 ± 0.002 W/m/K
382.29 K, 1304 kPa, Liquid	0.05933 ± 0.002 W/m/K
382.3 K, 1303 kPa, Liquid	0.0594 ± 0.0011 W/m/K
382.3 K, 7889 kPa, Liquid	0.06498 ± 0.00074 W/m/K
382.3 K, 7898 kPa, Liquid	0.065 ± 0.00098 W/m/K
382.32 K, 1195 kPa, Fluid (supercritical or subcritical phases)	0.01851 ± 0.0019 W/m/K
382.32 K, 1196 kPa, Fluid (supercritical or subcritical phases)	0.01849 ± 0.0026 W/m/K
382.35 K, 727 kPa, Fluid (supercritical or subcritical phases)	0.01767 ± 0.0016 W/m/K
382.35 K, 20108 kPa, Liquid	0.07266 ± 0.0016 W/m/K
382.36 K, 20093 kPa, Liquid	0.07261 ± 0.0013 W/m/K
382.37 K, 6276 kPa, Liquid	0.06375 ± 0.00084 W/m/K
382.38 K, 6283 kPa, Liquid	0.06377 ± 0.00092 W/m/K
382.38 K, 35584 kPa, Liquid	0.0803 ± 0.0042 W/m/K
382.39 K, 35567 kPa, Liquid	0.08024 ± 0.011 W/m/K
382.4 K, 16804 kPa, Liquid	0.07075 ± 0.00085 W/m/K
382.41 K, 16825 kPa, Liquid	0.07099 ± 0.002 W/m/K
382.42 K, 33043 kPa, Liquid	0.07905 ± 0.00091 W/m/K
382.42 K, 33046 kPa, Liquid	0.07909 ± 0.0009 W/m/K
382.44 K, 13721 kPa, Liquid	0.06888 ± 0.0021 W/m/K
382.45 K, 13744 kPa, Liquid	0.06889 ± 0.0017 W/m/K
382.46 K, 28331 kPa, Liquid	0.07696 ± 0.0058 W/m/K
382.47 K, 4293 kPa, Liquid	0.06211 ± 0.0011 W/m/K
382.47 K, 28334 kPa, Liquid	0.07681 ± 0.0012 W/m/K
382.48 K, 1001 kPa, Fluid (supercritical or subcritical phases)	0.01789 ± 0.0088 W/m/K
382.48 K, 4301 kPa, Liquid	0.06219 ± 0.0015 W/m/K
382.49 K, 529 kPa, Fluid (supercritical or subcritical phases)	0.01769 ± 0.00074 W/m/K
382.49 K, 1000 kPa, Fluid (supercritical or subcritical phases)	0.01794 ± 0.0032 W/m/K
382.5 K, 2615 kPa, Liquid	0.06083 ± 0.0011 W/m/K
382.51 K, 2614 kPa, Liquid	0.06065 ± 0.0015 W/m/K
382.51 K, 10968 kPa, Liquid	0.06711 ± 0.0013 W/m/K
382.51 K, 10976 kPa, Liquid	0.0674 ± 0.0025 W/m/K
382.53 K, 24122 kPa, Liquid	0.07474 ± 0.0025 W/m/K
382.54 K, 24143 kPa, Liquid	0.07473 ± 0.0071 W/m/K
382.55 K, 1308 kPa, Liquid	0.0594 ± 0.0013 W/m/K
382.56 K, 884 kPa, Fluid (supercritical or subcritical phases)	0.01781 ± 0.0024 W/m/K and 0.01779 ± 0.0024 W/m/K
382.56 K, 1302 kPa, Liquid	0.05937 ± 0.0012 W/m/K
382.56 K, 7890 kPa, Liquid	0.06497 ± 0.002 W/m/K
382.56 K, 7897 kPa, Liquid	0.06497 ± 0.001 W/m/K
382.56 K, 8382 kPa, Liquid	0.06533 ± 0.0054 W/m/K
382.56 K, 8389 kPa, Liquid	0.06536 ± 0.0047 W/m/K
382.58 K, 20086 kPa, Liquid	0.07258 ± 0.0011 W/m/K
382.58 K, 20109 kPa, Liquid	0.07262 ± 0.0016 W/m/K
382.6 K, 1196 kPa, Fluid (supercritical or subcritical phases)	0.01858 ± 0.0032 W/m/K
382.61 K, 1196 kPa, Fluid (supercritical or subcritical phases)	0.01858 ± 0.0032 W/m/K
382.62 K, 35572 kPa, Liquid	0.07991 ± 0.0018 W/m/K
382.63 K, 6276 kPa, Liquid	0.06372 ± 0.00084 W/m/K
382.63 K, 35594 kPa, Liquid	0.08017 ± 0.0029 W/m/K
382.64 K, 727 kPa, Fluid (supercritical or subcritical phases)	0.01771 ± 0.0015 W/m/K
382.64 K, 6276 kPa, Liquid	0.06375 ± 0.00084 W/m/K
382.65 K, 16810 kPa, Liquid	0.07072 ± 0.00099 W/m/K
382.65 K, 33011 kPa, Liquid	0.079 ± 0.0025 W/m/K
382.66 K, 16821 kPa, Liquid	0.07073 ± 0.0042 W/m/K
382.66 K, 33037 kPa, Liquid	0.07905 ± 0.0011 W/m/K
382.7 K, 13733 kPa, Liquid	0.0689 ± 0.0008 W/m/K
382.71 K, 13730 kPa, Liquid	0.06888 ± 0.00081 W/m/K
382.71 K, 28321 kPa, Liquid	0.07678 ± 0.0027 W/m/K
382.71 K, 28350 kPa, Liquid	0.07685 ± 0.00091 W/m/K
382.72 K, 4298 kPa, Liquid	0.06213 ± 0.0013 W/m/K
382.74 K, 4301 kPa, Liquid	0.06214 ± 0.0013 W/m/K
382.77 K, 2602 kPa, Liquid	0.06057 ± 0.0007 W/m/K
382.77 K, 2621 kPa, Liquid	0.06066 ± 0.0014 W/m/K
382.77 K, 10954 kPa, Liquid	0.06703 ± 0.0015 W/m/K
382.77 K, 24142 kPa, Liquid	0.07452 ± 0.0011 W/m/K
382.78 K, 1001 kPa, Fluid (supercritical or subcritical phases)	0.01826 ± 0.0046 W/m/K
382.78 K, 24124 kPa, Liquid	0.07466 ± 0.0014 W/m/K
382.79 K, 1000 kPa, Fluid (supercritical or subcritical phases)	0.0181 ± 0.0042 W/m/K
382.79 K, 10954 kPa, Liquid	0.06707 ± 0.0015 W/m/K
382.81 K, 530 kPa, Fluid (supercritical or subcritical phases)	0.01767 ± 0.00088 W/m/K
382.82 K, 7886 kPa, Liquid	0.06511 ± 0.0016 W/m/K
382.83 K, 1306 kPa, Liquid	0.05933 ± 0.00067 W/m/K
382.83 K, 8368 kPa, Liquid	0.06524 ± 0.0012 W/m/K
382.83 K, 8383 kPa, Liquid	0.06552 ± 0.0011 W/m/K
382.84 K, 1310 kPa, Liquid	0.05941 ± 0.0008 W/m/K
382.84 K, 7894 kPa, Liquid	0.06495 ± 0.00099 W/m/K
382.84 K, 20089 kPa, Liquid	0.07256 ± 0.0016 W/m/K
382.85 K, 20100 kPa, Liquid	0.07257 ± 0.0019 W/m/K
382.87 K, 883 kPa, Fluid (supercritical or subcritical phases)	0.01794 ± 0.0024 W/m/K
382.87 K, 885 kPa, Fluid (supercritical or subcritical phases)	0.01792 ± 0.0028 W/m/K
382.87 K, 35575 kPa, Liquid	0.08013 ± 0.0029 W/m/K
382.87 K, 35578 kPa, Liquid	0.08012 ± 0.0029 W/m/K
382.91 K, 1197 kPa, Fluid (supercritical or subcritical phases)	0.01873 ± 0.0041 W/m/K
382.91 K, 6263 kPa, Liquid	0.06365 ± 0.0026 W/m/K
382.91 K, 6280 kPa, Liquid	0.06372 ± 0.0026 W/m/K
382.91 K, 33006 kPa, Liquid	0.07896 ± 0.0014 W/m/K
382.91 K, 33028 kPa, Liquid	0.07899 ± 0.0013 W/m/K
382.92 K, 16811 kPa, Liquid	0.07071 ± 0.0012 W/m/K
382.92 K, 16817 kPa, Liquid	0.0707 ± 0.0012 W/m/K
382.96 K, 28308 kPa, Liquid	0.07685 ± 0.0012 W/m/K
382.97 K, 727 kPa, Fluid (supercritical or subcritical phases)	0.01778 ± 0.0018 W/m/K
382.97 K, 28333 kPa, Liquid	0.07679 ± 0.0011 W/m/K
382.98 K, 13709 kPa, Liquid	0.06879 ± 0.0013 W/m/K
382.98 K, 13730 kPa, Liquid	0.06887 ± 0.0013 W/m/K
383 K, 4290 kPa, Liquid	0.06207 ± 0.00079 W/m/K
383.01 K, 4292 kPa, Liquid	0.0621 ± 0.00084 W/m/K
383.03 K, 24102 kPa, Liquid	0.07464 ± 0.00093 W/m/K
383.04 K, 24119 kPa, Liquid	0.07466 ± 0.00093 W/m/K
383.05 K, 10954 kPa, Liquid	0.06701 ± 0.00095 W/m/K
383.06 K, 2617 kPa, Liquid	0.06075 ± 0.00083 W/m/K
383.06 K, 10970 kPa, Liquid	0.06706 ± 0.00095 W/m/K
383.07 K, 2612 kPa, Liquid	0.06066 ± 0.0012 W/m/K
383.08 K, 1001 kPa, Fluid (supercritical or subcritical phases)	0.01823 ± 0.0013 W/m/K
383.08 K, 1002 kPa, Fluid (supercritical or subcritical phases)	0.01821 ± 0.0014 W/m/K
